Data set [1] has as its system Mycobacterium tuberculosis. In words: Antitubercular activity against Mycobacterium tuberculosis H37Rv assessed as bacterial growth inhibition incubated for […] by MABA assay. The class given is functional. (In general: Alamar Blue is a resazurin reagent that responds to reducing activity.)
The target of data set [2] is T1, Decaprenylphosphoryl-beta-D-ribose oxidase (Mycobacterium tuberculosis (strain ATCC 25618 / H37Rv), UniProt P9WJF1).
T1 sequence (P9WJF1 whole entry): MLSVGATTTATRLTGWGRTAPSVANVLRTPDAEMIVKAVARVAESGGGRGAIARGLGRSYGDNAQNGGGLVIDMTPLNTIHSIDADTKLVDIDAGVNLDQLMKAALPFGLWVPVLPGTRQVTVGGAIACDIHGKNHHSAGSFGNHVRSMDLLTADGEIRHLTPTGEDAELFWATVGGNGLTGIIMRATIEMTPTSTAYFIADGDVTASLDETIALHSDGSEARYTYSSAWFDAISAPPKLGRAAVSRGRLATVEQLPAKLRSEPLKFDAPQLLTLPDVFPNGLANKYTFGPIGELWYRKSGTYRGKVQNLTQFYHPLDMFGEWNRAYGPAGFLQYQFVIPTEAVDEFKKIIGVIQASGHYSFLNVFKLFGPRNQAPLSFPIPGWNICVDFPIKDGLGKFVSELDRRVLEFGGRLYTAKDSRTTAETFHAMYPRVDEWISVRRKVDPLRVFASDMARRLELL
In words: Inhibition of Mycobacterium tuberculosis H37Rv recombinant DprE1 expressed in Escherichia coli assessed as formation of resorufin using FPR as substrate by Amplex Red hydrogen/peroxidase coupled assay.

The nature of data set [3]: Thermodynamic solubility of compound at pH 7.4 aqueous phosphate buffer. The class given is physicochemical. To be noted: read-out: Therm_solubility.
A short description of data set [4]: Plasma protein binding in human. The settings on record: read-out: PPB (converted). The class given is ADME, cell-free.
Data set [5] can be described thus: Metabolic stability in human liver microsomes assessed as half life at 1 uM preincubated for 10 mins followed by NADPH addition and further incubated upto 60 mins by LC-MS/MS analysis. The class given is ADME, Microsome. To be noted: time 70 min. (In general: Liver microsomes are vesicles of endoplasmic reticulum, rich in cytochrome P450 enzymes.)
A short description of data set [6]: Metabolic stability in mouse liver microsomes assessed as half life at 1 uM preincubated for 10 mins followed by NADPH addition and further incubated upto 60 mins by LC-MS/MS analysis. The format is ADME, Microsome. To be noted: time 70 min.
A short description of data set [7]: Metabolic stability in human liver microsomes assessed as intrinsic clearance at 1 uM preincubated for 10 mins followed by NADPH addition and further incubated upto 60 mins by LC-MS/MS analysis. The class given is ADME, Microsome. The settings on record: time 70 min, read-out: CLH.
Data set [8] is described as follows: Metabolic stability in mouse liver microsomes assessed as intrinsic clearance at 1 uM preincubated for 10 mins followed by NADPH addition and further incubated upto 60 mins by LC-MS/MS analysis. The format is ADME, Microsome. The settings on record: time 70 min, read-out: CLH.

Molecules are shown by their SMILES. In brackets after ≈: the same amount, converted by molar mass.

In the case of `CS(=O)(=O)c1cc([N+](=O)[O-])c2sc(N3CCN(S(=O)(=O)c4ccccc4)CC3)nc(=O)c2c1`, the MIC in data set [1] is 0.33 µM (≈ 0.168 µg/mL).

As for `CS(=O)(=O)c1cc([N+](=O)[O-])c2sc(N3CCN(Cc4ccccc4)CC3)nc(=O)c2c1`, the MIC in data set [1] was found to be 0.21 µM (≈ 0.0967 µg/mL).

On to `CS(=O)(=O)c1cc([N+](=O)[O-])c2sc(N3CCN(S(=O)(=O)c4cccs4)CC3)nc(=O)c2c1`, for which the MIC in data set [1] came to 108 µM (≈ 55.8 µg/mL).

Take `CS(=O)(=O)c1cc([N+](=O)[O-])c2sc(N3CCCN(CC4CCCC4)CC3)nc(=O)c2c1`: in data set [1], the MIC came to 0.15 µM (≈ 0.07 µg/mL). In addition, the IC50 in data set [2] came to 4.4 µM.

Take `CS(=O)(=O)c1cc([N+](=O)[O-])c2sc(N3CCN(CC4CCCCC4)C4(CC4)C3)nc(=O)c2c1`: the MIC in data set [1] was 0.04 µM (≈ 0.0197 µg/mL). In addition, in data set [2], the IC50 stood at 3.9 µM. Besides, the solubility thermodynamic in data set [3] is 0.7 µg/mL (≈ 1.42 µM). The fraction unbound in data set [4] was 0.016. For the same compound, the half-life at 1 µM stood at 22.6 min in data set [5] and 33.5 min in data set [6]. In addition, the values for the CLint scaled at 1 µM in data set [7] and in data set [8] were 77 mL/min/kg and 163 mL/min/kg, respectively.

As to `CS(=O)(=O)c1cc([N+](=O)[O-])c2sc(N3CCCN(S(=O)(=O)c4ccccc4)CC3)nc(=O)c2c1`, in data set [1], the MIC was > 3.5 µM.

Regarding `CS(=O)(=O)c1cc([N+](=O)[O-])c2sc(N3CCCN(CC4CCCCC4)CC3)nc(=O)c2c1`, the MIC in data set [1] was found to be 0.07 µM (≈ 0.0336 µg/mL). Moreover, the IC50 in data set [2] was 1.1 µM.

`CC(C)CN1CCN(c2nc(=O)c3cc(S(C)(=O)=O)cc([N+](=O)[O-])c3s2)CC12CC2`: the MIC in data set [1] came out at 0.17 µM (≈ 0.0769 µg/mL).

Turning to `CS(=O)(=O)c1cc([N+](=O)[O-])c2sc(N3CCCN(S(=O)(=O)C4CC4)CC3)nc(=O)c2c1`, the MIC in data set [1] was determined as 0.94 µM (≈ 0.459 µg/mL). In data set [2], the IC50 came to 16.7 µM.

As to `CS(=O)(=O)c1cc([N+](=O)[O-])c2sc(N3CCN(CC4CCC(F)(F)CC4)CC3)nc(=O)c2c1`, in data set [1], the MIC was determined as 0.03 µM (≈ 0.0151 µg/mL). Moreover, in data set [2], the IC50 was 1.1 µM. For the same compound, the solubility thermodynamic in data set [3] was 0.81 µg/mL (≈ 1.61 µM). Moreover, the fraction unbound in data set [4] was 0.021. Moreover, the figures for the half-life at 1 µM in data set [5] and in data set [6] were 38.6 min and 59 min, respectively. The CLint scaled at 1 µM is 45.1 mL/min/kg in data set [7] and 92.4 mL/min/kg in data set [8].

`CS(=O)(=O)c1cc([N+](=O)[O-])c2sc(N3CCN(C(=O)c4ccccc4)CC3)nc(=O)c2c1`: in data set [1], the MIC is > 64 µM.

In the case of `CS(=O)(=O)c1cc([N+](=O)[O-])c2sc(N3CCCN(S(=O)(=O)c4cccs4)CC3)nc(=O)c2c1`, the MIC in data set [1] was > 3.5 µM.

As for `CC(C)CN1CCCN(c2nc(=O)c3cc(S(C)(=O)=O)cc([N+](=O)[O-])c3s2)CC1`, the MIC in data set [1] turned out to be 0.07 µM (≈ 0.0308 µg/mL). In data set [2], the IC50 came to 1.3 µM.

For `CS(=O)(=O)c1cc([N+](=O)[O-])c2sc(N3CCN(CC4CCOCC4)CC3)nc(=O)c2c1`, the minimal inhibitory concentration (MIC) in data set [1] came out at 0.51 µM (≈ 0.239 µg/mL). In addition, in data set [2], the IC50 was found to be 10.3 µM.

With `CCS(=O)(=O)N1CCCN(c2nc(=O)c3cc(S(C)(=O)=O)cc([N+](=O)[O-])c3s2)CC1`, in data set [1], the minimum inhibitory concentration (MIC) was > 2 µM.

With `CCS(=O)(=O)N1CCN(c2nc(=O)c3cc(S(C)(=O)=O)cc([N+](=O)[O-])c3s2)CC1`, the MIC in data set [1] stood at 0.26 µM (≈ 0.12 µg/mL). For the same compound, the IC50 in data set [2] was determined as 6.7 µM.

On to `CS(=O)(=O)c1cc([N+](=O)[O-])c2sc(N3CCN(CC4CCCCC4)CC3)nc(=O)c2c1`, for which the MIC in data set [1] was found to be 0.01 µM (≈ 0.00467 µg/mL). For the same compound, in data set [2], the half-inhibitory concentration (IC50) was found to be 0.05 µM. Also, in data set [4], the fraction unbound is 0.025. Besides, the half-life at 1 µM in data set [5] was 28.8 min; in data set [6], 42.1 min. Further, the CLint scaled at 1 µM in data set [7] turned out to be 60.5 mL/min/kg; in data set [8], 129 mL/min/kg.

Turning to `O=c1nc(N2CCN(CC3CCCCC3)CC2)sc2c([N+](=O)[O-])cc(C(F)(F)F)cc12` [MACOZINONE], the solubility thermodynamic in data set [3] was < 0.01 µg/mL. Besides, in data set [4], the fraction unbound is < 0.001. Besides, the half-life at 1 µM in data set [5] worked out at 62.1 min; in data set [6], 31.5 min. The CLint scaled at 1 µM in data set [7] is 28.1 mL/min/kg; in data set [8], 174 mL/min/kg.

Take `CCCCCN1CCCN(c2nc(=O)c3cc(S(C)(=O)=O)cc([N+](=O)[O-])c3s2)CC1`: in data set [1], the MIC amounted to 0.49 µM (≈ 0.223 µg/mL).

In the case of `CS(=O)(=O)c1cc([N+](=O)[O-])c2sc(N3CCN(CC4CCCCC4)C(=O)C3)nc(=O)c2c1`, the MIC in data set [1] turned out to be 0.07 µM (≈ 0.0336 µg/mL).

For `CS(=O)(=O)c1cc([N+](=O)[O-])c2sc(N3CCN(S(=O)(=O)C4CC4)CC3)nc(=O)c2c1`, the MIC in data set [1] is 0.3 µM (≈ 0.142 µg/mL). In data set [2], the IC50 amounted to 7.1 µM.

Regarding `CS(=O)(=O)c1cc([N+](=O)[O-])c2sc(N3CCN(Cc4cccs4)CC3)nc(=O)c2c1`, the minimal inhibitory concentration (MIC) in data set [1] stood at 0.25 µM (≈ 0.117 µg/mL).

On to `CS(=O)(=O)c1cc([N+](=O)[O-])c2sc(N3CCCN(Cc4ccccc4)CC3)nc(=O)c2c1`, for which the MIC in data set [1] came out at 0.48 µM (≈ 0.228 µg/mL).

Turning to `CS(=O)(=O)c1cc([N+](=O)[O-])c2sc(N3CCN(CC4CCC(C(F)(F)F)CC4)CC3)nc(=O)c2c1` (configuration not stated), in data set [1], the MIC stood at 1.87 µM (≈ 1 µg/mL).

On to `CCCCS(=O)(=O)N1CCN(c2nc(=O)c3cc(S(C)(=O)=O)cc([N+](=O)[O-])c3s2)CC1`, for which the MIC in data set [1] turned out to be 0.09 µM (≈ 0.0442 µg/mL). The IC50 in data set [2] stood at 1.4 µM.

In the case of `CS(=O)(=O)c1cc([N+](=O)[O-])c2sc(N3CCN(C(=O)C4CCCCC4)CC3)nc(=O)c2c1`, the minimum inhibitory concentration (MIC) in data set [1] is 0.96 µM (≈ 0.461 µg/mL).

Regarding `CCCCS(=O)(=O)N1CCCN(c2nc(=O)c3cc(S(C)(=O)=O)cc([N+](=O)[O-])c3s2)CC1`, the MIC in data set [1] was > 2 µM.

For `CS(=O)(=O)c1cc([N+](=O)[O-])c2sc(N3CCN(CC4CCSCC4)CC3)nc(=O)c2c1`, the MIC in data set [1] stood at 0.1 µM (≈ 0.0485 µg/mL).

For the compound `CC(C)CCN1CCCN(c2nc(=O)c3cc(S(C)(=O)=O)cc([N+](=O)[O-])c3s2)CC1`, the minimum inhibitory concentration (MIC) in data set [1] worked out at 0.49 µM (≈ 0.223 µg/mL).

As a reminder, the MIC is the least concentration at which growth counts as inhibited. What is called IC50 is the concentration that gives 50% inhibition. The term half-life denotes the time in which the quantity being followed falls by half.

Source of the values: ChEMBL document CHEMBL5046318, “Development of 6-Methanesulfonyl-8-nitrobenzothiazinone Based Antitubercular Agents” (ACS Med Chem Lett, 2022).
